Test results reported in US20150079158A1, “METHOD TO STABILIZE LIPOSOME EMULSIONS FOR BIOCIDAL DELIVERY” (General Electric Company, priority 2012, published 2015).

Assay: HPLC analysis of active degradation after accelerated storage
Assay type: physicochemical
Description: The degradation of the biocide-containing liposome emulsion can be qualitatively observed by the formation of an insoluble precipitate. Quantitatively, high pressure liquid chromatography (HPLC) analysis was used to determine actives concentrations for samples stored under accelerated storage conditions. The samples that passed 90 days at 35° C. or 30 days at 50° C. were taken to ambient temperature and analyzed. The stability of these liposome emulsions was determined as follows.
HPLC analysis was executed for active degradation of 5-chloro-2-methyl-4-isothiazolin-3-one and 2-methyl-4-isothiazolin-3-one in the samples after 90 days at 35° C. or 30 days at 50° C.

active degradation (HPLC): less than 10%
SMILES: Cn1sccc1=O [2-methyl-4-isothiazolin-3-one]
